Laboratory results: ChEMBL document CHEMBL4316588, “Design, Synthesis, and Biological Evaluation of Novel DNA Gyrase-Inhibiting Spiropyrimidinetriones as Potent Antibiotics for Treatment of Infections Caused by Multidrug-Resistant Gram-Positive Bacteria” (J Med Chem, 2019)
Values after ≈ are worked out from the molar mass of the structure shown. Active and inactive are the calls of the source. The rule behind the calls is not given here.

Legend:
Assay type in all cases: functional
Streptococcus pneumoniae = assay: Antibacterial activity against penicillin-resistant Streptococcus pneumoniae after 18 to 20 hrs by CLSI-protocol based broth microdilution method
Streptococcus pyogenes = assay: Antibacterial activity against Streptococcus pyogenes after 18 to 20 hrs by CLSI-protocol based broth microdilution method
[1] = tested on: Staphylococcus epidermidis; assay: Antibacterial activity against methicillin-sensitive Staphylococcus epidermidis after 18 to 20 hrs by CLSI-protocol based broth microdilution method
Staphylococcus aureus [2] = assay: Antibacterial activity against methicillin-resistant Staphylococcus aureus after 18 to 20 hrs by CLSI-protocol based broth microdilution method
Staphylococcus aureus [3] = assay: Antibacterial activity against methicillin-sensitive Staphylococcus aureus after 18 to 20 hrs by CLSI-protocol based broth microdilution method
[4] = tested on: Staphylococcus epidermidis; assay: Antibacterial activity against methicillin-resistant Staphylococcus epidermidis after 18 to 20 hrs by CLSI-protocol based broth microdilution method
[5] = Streptococcus pyogenes, read-out: MIC
[6] = Staphylococcus aureus, read-out: MIC

| SMILES | MIC (Streptococcus pneumoniae) | MIC (Streptococcus pyogenes) | MIC [1] | MIC (Staphylococcus aureus [2]) | MIC (Staphylococcus aureus [3]) | MIC [4] | MIC (Streptococcus pyogenes; [5]) | MIC (Staphylococcus aureus [3]; [6]) |
| --- | --- | --- | --- | --- | --- | --- | --- | --- |
| Cc1ncnc2c(F)c3c(cc12)CC1(C(=O)NC(=O)NC1=O)[C@H]1[C@H](C)O[C@H](C)CN31 (racemic) | inactive | inactive | inactive | inactive | inactive | inactive | – | – |
| C[C@@H]1CN2c3c(cc4c(N5CCOC5=O)ncnc4c3F)CC3(C(=O)NC(=O)NC3=O)[C@H]2[C@H](C)O1 (relative stereo) | inactive | inactive | inactive | inactive | inactive | inactive | – | – |
| C[C@@H]1CN2c3c(cc4c(N5C(=O)SC[C@@H]5Cc5ccccc5)noc4c3F)CC3(C(=O)NC(=O)NC3=O)[C@H]2[C@H](C)O1 | 4 to 8 µg/mL (≈ 6.9 to 13.8 µM) | – | 1 to 4 µg/mL (≈ 1.73 to 6.9 µM) | 8 to 16 µg/mL (≈ 13.8 to 27.6 µM) | – | 1 to 4 µg/mL (≈ 1.73 to 6.9 µM) | 4 to 8 µg/mL (≈ 6.9 to 13.8 µM) | 2 to 8 µg/mL (≈ 3.45 to 13.8 µM) |
| CC(=O)NC[C@H]1CN(c2noc3c(F)c4c(cc23)CC2(C(=O)NC(=O)NC2=O)[C@H]2[C@H](C)O[C@H](C)CN42)C(=O)S1 | 2 µg/mL (≈ 3.57 µM) | – | 2 to 8 µg/mL (≈ 3.57 to 14.3 µM) | 16 to 64 µg/mL (≈ 28.5 to 114 µM) | – | 0.5 to 2 µg/mL (≈ 0.892 to 3.57 µM) | 16 to 32 µg/mL (≈ 28.5 to 57.1 µM) | 16 µg/mL (≈ 28.5 µM) |
| C[C@@H]1CN2c3c(cc4c(N5C[C@H](C)SC5=O)noc4c3C#N)CC3(C(=O)NC(=O)NC3=O)[C@H]2[C@H](C)O1 | 0.125 to 0.25 µg/mL (≈ 0.245 to 0.49 µM) | – | 0.06 to 0.125 µg/mL (≈ 0.118 to 0.245 µM) | – | – | 0.06 to 0.5 µg/mL (≈ 0.118 to 0.979 µM) | 0.125 to 0.5 µg/mL (≈ 0.245 to 0.979 µM) | 0.06 to 1 µg/mL (≈ 0.118 to 1.96 µM) |
| C[C@@H]1CN2c3c(cc4c(N5C(=O)SCC56CC6)noc4c3F)CC3(C(=O)NC(=O)NC3=O)[C@H]2[C@H](C)O1 | 1 to 2 µg/mL (≈ 1.94 to 3.88 µM) | – | 1 to 4 µg/mL (≈ 1.94 to 7.76 µM) | 0.5 to 8 µg/mL (≈ 0.97 to 15.5 µM) | – | 2 to 4 µg/mL (≈ 3.88 to 7.76 µM) | 4 µg/mL (≈ 7.76 µM) | 2 to 4 µg/mL (≈ 3.88 to 7.76 µM) |
| C[C@@H]1CN2c3c(cc4c(N5C[C@H](CO)SC5=O)noc4c3F)CC3(C(=O)NC(=O)NC3=O)[C@H]2[C@H](C)O1 | 0.125 to 0.25 µg/mL (≈ 0.241 to 0.481 µM) | – | 0.06 to 0.25 µg/mL (≈ 0.115 to 0.481 µM) | 0.5 to 4 µg/mL (≈ 0.962 to 7.7 µM) | – | 0.03 to 0.125 µg/mL (≈ 0.0577 to 0.241 µM) | 0.125 to 0.5 µg/mL (≈ 0.241 to 0.962 µM) | 1 µg/mL (≈ 1.92 µM) |
| C[C@@H]1CN2c3c(cc4c(N5CCOC5=S)noc4c3F)CC3(C(=O)NC(=O)NC3=O)[C@H]2[C@H](C)O1 (racemic) | 1 to 2 µg/mL (≈ 2.04 to 4.09 µM) | – | 0.5 to 2 µg/mL (≈ 1.02 to 4.09 µM) | 1 to 2 µg/mL (≈ 2.04 to 4.09 µM) | – | 1 µg/mL (≈ 2.04 µM) | 2 µg/mL (≈ 4.09 µM) | 0.5 to 1 µg/mL (≈ 1.02 to 2.04 µM) |
| C[C@@H]1CN2c3c(cc4c(-n5cncn5)ncnc4c3F)CC3(C(=O)NC(=O)NC3=O)[C@H]2[C@H](C)O1 (racemic) | inactive | inactive | inactive | inactive | inactive | inactive | – | – |
| C[C@@H]1CN2c3c(cc4c(N5C[C@H](COC(F)(F)F)SC5=O)noc4c3F)CC3(C(=O)NC(=O)NC3=O)[C@H]2[C@H](C)O1 | 0.125 to 0.5 µg/mL (≈ 0.213 to 0.851 µM) | – | – | – | – | – | 0.125 to 0.25 µg/mL (≈ 0.213 to 0.426 µM) | 0.06 to 1 µg/mL (≈ 0.102 to 1.7 µM) |
| C[C@@H]1CN2c3c(cc4c(N5CCCOC5=O)noc4c3F)CC3(C(=O)NC(=O)NC3=O)[C@H]2[C@H](C)O1 (racemic) | 4 to 8 µg/mL (≈ 8.21 to 16.4 µM) | – | 4 µg/mL (≈ 8.21 µM) | 1 to 64 µg/mL (≈ 2.05 to 131 µM) | – | 1 to 8 µg/mL (≈ 2.05 to 16.4 µM) | 4 µg/mL (≈ 8.21 µM) | 4 to 8 µg/mL (≈ 8.21 to 16.4 µM) |
| C[C@@H]1CN2c3c(cc4c(N5C(=O)S[C@@H]6CCC[C@@H]65)noc4c3F)CC3(C(=O)NC(=O)NC3=O)[C@H]2[C@H](C)O1 | < 0.03 µg/mL | – | < 0.03 µg/mL | – | – | – | < 0.03 µg/mL | – |
| C[C@@H]1CN2c3c(cc4c(N5C(=O)OC[C@@H]5C)noc4c3F)CC3(C(=O)NS(=O)(=O)NC3=O)[C@H]2[C@H](C)O1 | inactive | inactive | inactive | inactive | inactive | inactive | – | – |
| C[C@@H]1CN2c3c(cc4c(N5C(=O)OC[C@@H]5C)noc4c3C#N)CC3(C(=O)NC(=O)NC3=O)[C@H]2[C@H](C)O1 | 2 to 8 µg/mL (≈ 4.04 to 16.2 µM) | – | 0.5 to 2 µg/mL (≈ 1.01 to 4.04 µM) | 1 to 32 µg/mL (≈ 2.02 to 64.7 µM) | – | 1 to 2 µg/mL (≈ 2.02 to 4.04 µM) | 4 to 8 µg/mL (≈ 8.09 to 16.2 µM) | 4 to 8 µg/mL (≈ 8.09 to 16.2 µM) |
| CC[C@@H]1CN(c2noc3c(F)c4c(cc23)CC2(C(=O)NC(=O)NC2=O)[C@H]2[C@H](C)O[C@H](C)CN42)C(=O)S1 | – | – | < 0.03 µg/mL | – | – | < 0.03 µg/mL | < 0.03 µg/mL | – |
| C[C@@H]1CN2c3c(cc4c(N5C[C@H](c6ccccc6)SC5=O)noc4c3F)CC3(C(=O)NC(=O)NC3=O)[C@H]2[C@H](C)O1 | 1 to 2 µg/mL (≈ 1.77 to 3.54 µM) | – | 0.5 to 2 µg/mL (≈ 0.884 to 3.54 µM) | 0.125 to 2 µg/mL (≈ 0.221 to 3.54 µM) | – | 0.125 to 0.5 µg/mL (≈ 0.221 to 0.884 µM) | 4 µg/mL (≈ 7.07 µM) | 0.5 to 1 µg/mL (≈ 0.884 to 1.77 µM) |
| C[C@@H]1CN2c3c(cc4c(N5C(=O)S[C@H]6CCC[C@H]65)noc4c3F)CC3(C(=O)NC(=O)NC3=O)[C@H]2[C@H](C)O1 | 0.25 to 0.5 µg/mL (≈ 0.472 to 0.944 µM) | – | 0.5 µg/mL (≈ 0.944 µM) | 0.25 to 1 µg/mL (≈ 0.472 to 1.89 µM) | – | 0.5 µg/mL (≈ 0.944 µM) | 0.125 µg/mL (≈ 0.236 µM) | 0.25 to 0.5 µg/mL (≈ 0.472 to 0.944 µM) |
| C[C@H]1COc2c(N3CCN(C)CC3)c(F)cc3c(=O)c(C(=O)O)cn1c23.C[C@H]1COc2c(N3CCN(C)CC3)c(F)cc3c(=O)c(C(=O)O)cn1c23.O [LEVOFLOXACIN] | – | – | 0.5 to 4 µg/mL | 16 to 64 µg/mL | – | 4 to 64 µg/mL | 0.5 to 1 µg/mL | 4 to 64 µg/mL |
